What all share (format): physicochemical
Data set [1] can be described thus: Release rate of 10 wt. % pyrethroid impregnated polymers (Example 5).
Data set [2] in a line: Release rate of pesticides from controlled release devices, one inch squares of 1/8 inch sheets (Example 3). The source says: Controlled release devices were made and tested to obtain their release rates. All thermoplastic polymers were formulated with 10 percent pesticide, 3 or 7 percent carbon black to absorb liquid pesticide, and 83 to 87 percent by weight of polymer and injection molded into thin sheets about ⅛ inch thick. […] The devices made from the remaining pesticides and thermoplastic polymers contained 7 percent of carbon black.
The devices made from S-113 urethane (a thermoset polymer) were made from a polymer mix containing 60% S-113, 40% castor oil and […] of TIPA catalyst by weight. The polymer mix comprised 90% of the total weight of the device. The pesticide, deltamethrin, comprised the remaining 10% of the device. No carbon black was used in this device. The polymer/pesticide mixture was cast into a ⅛ inch thick sheet and heated at about 60° C. for about 40 to 60 minutes to cure the cast sheet.
One inch squares were then cut from the thin sheets that were injection molded or cast and the squares were tested for release rates.

Data set [3] in a line: Effect of carbon black binding carrier on release rate (Example 6). The note with it: active chemical 5 wt. %, high density polyethylene (MA 778-000), 6 weeks after fabrication. As for the experimental part:
Release rates were measured at 6 weeks after fabrication wherein samples were wiped weekly to remove surface accumulation of released active chemical.

Data set [4] in a line: Release rate versus lambda cyhalothrin concentration and polymer combination (Example 4).
Description: An experiment was conducted to determine the effect of lambda cyhalothrin (pyrethroid) concentration and insecticide/polymer combination on release rate of insecticide from the polymer.
The nature of data set [5]: Release rate of lambda cyhalothrin from multi-layer barrier film. The text has this:
The release rate of bioactive chemicals from the bonding layer 126 to the other layers is greater than the release rate of bioactive chemicals from the barrier film 110 to the exterior of the barrier film 110.

Data set [6] can be described thus: Thermal decomposition of the pesticide during processing. Here is the method:
To have a safety cushion for operating conditions, it is beneficial to have a processing temperature of approximately 150° C.
(§1) The polymers evaluated included low melt polyethylene, polyurethane, two epoxies, silicone rubber, and a low melt polyethylene high in waxes to reduce thermal decomposition of the chlorpyrifos.

A short description of data set [7]: Release rate of chlorpyrifos from polymer devices (Example 1). Particulars: 50° C. Here is the method:
Experiments were conducted to determine the release rate of chlorpyrifos. Loading rates for the insecticide were either 5 wt. % (weight percent) or 10 wt. % depending on the polymer. Release rates were determined for all devices at 50° C.
as §1
Release rates ranged from 10 μg/cm^2/day for the silicone rubber to 0.3 μg/cm^2/day for Epoxy B.

The nature of data set [8]: Release rate of pyrethrin from polymer systems (Example 2). The note with it: Pyrethrin I content 10%, 40° C. Here is the method: Studies were also conducted with similar polymer systems as in Example 1 but with 80% pure pyrethrin.
The mark [9] stands for this setting: Polyethylene MA 778-000, 10 percent pesticide.
[10] abbreviates: Polyurethane 2200, 10 percent pesticide.
The mark [11] stands for this setting: Polyurethane 3100, 10 percent pesticide.

Marks after values point to notes of the source that are not given here. Where only a bound is given, the exact number is not on record here.

Consider `Cc1c(F)c(F)c(COC(=O)[C@@H]2[C@H](/C=C(\Cl)C(F)(F)F)C2(C)C)c(F)c1F` (racemic) [Tefluthrin], for which the “Release Rate” value in data set [1] (Ethylvinyl acetate) is on record as 4.3 mg/cm^2/da; in data set [1] (Polyethylene), 2.2 mg/cm^2/da; in data set [2] (EVA 763, 10 percent pesticide), 40.4 μg/cm^2/day; in data set [2] (setting [9]) it was 27.0 μg/cm^2/day; in data set [2] (setting [10]), 25.0 μg/cm^2/day; in data set [2] (setting [11]), 6.4 μg/cm^2/day. Moreover, the “Release Rate” value in data set [3] (carbon black 0 wt. %) stood at 3.13 μg/cm^2/day; in data set [3] (carbon black 10 wt. %), 0.71 μg/cm^2/day.

For the compound `CC1(C)C(C=C(Cl)Cl)C1C(=O)OCc1cccc(Oc2ccccc2)c1` (stereo not shown) [Permethrin], the “Release Rate” value in data set [1] (Ethylvinyl acetate) is 3.9 mg/cm^2/da; in data set [1] (Polyethylene), 1.4 mg/cm^2/da; in data set [2] (EVA 763, 10 percent pesticide), 28.5 μg/cm^2/day; in data set [2] (setting [9]), 4.0 μg/cm^2/day; in data set [2] (setting [10]) it was 1.3 μg/cm^2/day; in data set [2] (setting [11]) it was 1.4 μg/cm^2/day.

For `CC1(C)[C@H](C(=O)O[C@H](C#N)c2cccc(Oc3ccccc3)c2)[C@@H]1C=C(Br)Br` [Deltamethrin], the “Release Rate” value in data set [2] (Alipmtic PS-49-100, 10 percent pesticide) stood at 7.2 μg/cm^2/day; in data set [2] (Aromatic 80A, 10 percent pesticide), 16.8 μg/cm^2/day; in data set [2] (Pellethane 2102-55D, 10 percent pesticide), 8.0 μg/cm^2/day; in data set [2] (Pellethane 2102-80A, 10 percent pesticide), 8.8 μg/cm^2/day; in data set [2] (S-113 urethane, 10% pesticide, no carbon black) it was 25.2 μg/cm^2/day.

Consider `CC1(C)[C@H](C(=O)O[C@H](C#N)c2cccc(Oc3ccccc3)c2)[C@@H]1/C=C(\Cl)C(F)(F)F` (racemic) [Lambda cyhalothrin], for which the “Release Rate” value in data set [2] (EVA 763, 10 percent pesticide) is recorded as 27.3 μg/cm^2/day; in data set [2] (setting [9]), 4.6 μg/cm^2/day; in data set [2] (setting [10]), 0.7 μg/cm^2/day; in data set [2] (setting [11]), 0.4 μg/cm^2/day; in data set [3] (carbon black 0 wt. %), 1.78 μg/cm^2/day; in data set [3] (carbon black 10 wt. %) it was 0.81 μg/cm^2/day. In data set [3] (carbon black 20 wt. %), the “Release Rate” value was determined as 0.61 μg/cm^2/day. The “Pyrethroid Release Rate” value in data set [4] (Ethylvinyl Acetate (EVA), pyrethroid 1 wt. %) is listed as 0.3 mg/cm^2/da; in data set [4] (Ethylvinyl Acetate (EVA), pyrethroid 5 wt. %), 2.2 mg/cm^2/da; in data set [4] (Ethylvinyl Acetate (EVA), pyrethroid 10 wt. %) it was 2.5 mg/cm^2/da; in data set [4] (Polyurethane, pyrethroid 1 wt. %) it was 0.9 mg/cm^2/da; in data set [4] (Polyurethane, pyrethroid 5 wt. %), 4.4 mg/cm^2/da; in data set [4] (Polyurethane, pyrethroid 10 wt. %), 8.3 mg/cm^2/da. Further, the “Pyrethroid Release Rate” value in data set [4] (Polyurethane/EVA (50/50), pyrethroid 1 wt. %) is 2.6 mg/cm^2/da; in data set [4] (Polyurethane/EVA (50/50), pyrethroid 5 wt. %), 7.2 mg/cm^2/da; in data set [4] (Polyurethane/EVA (50/50), pyrethroid 10 wt. %), 9.1 mg/cm^2/da. Also, the “release rate from barrier film” value in data set [5] (preferred eight-layer embodiment) and in data set [5] (six-layer embodiment) was “less than 0.002 μg per square centimeter of film per day” in each case. Besides, the “temperature above which thermal decomposition and volatilization occurs” value in data set [6] (in the manufacturing process) is more than 160 °C.

`CC1(C)C(C=C(Cl)Cl)C1C(=O)OC(C#N)c1cccc(Oc2ccccc2)c1` (stereo not shown) [Cypermethrin]: the “Release Rate” value in data set [2] (EVA 763, 10 percent pesticide) is reported as 27.3 μg/cm^2/day; in data set [2] (setting [9]) it was 4.6 μg/cm^2/day; in data set [2] (setting [10]), 0.7 μg/cm^2/day; in data set [2] (setting [11]), 0.4 μg/cm^2/day.

For `CCOP(=S)(OCC)Oc1nc(Cl)c(Cl)cc1Cl` [Chlorpyrifos, chlorpyrifos], the “Release Rate” value is on record as less than 0.1 μg/cm^2/da in data set [7] (Epoxy A, chlorpyrifos content 5%); 0.3 ± 0.1 μg/cm^2/da in data set [7] (Epoxy B, chlorpyrifos content 10%); 0.3 μg/cm^2/da in data set [7] (Epoxy B, chlorpyrifos content 10%, listed as chlorpyrifos); 1.9 ± 0.3 μg/cm^2/da in data set [7] (PE + Wax, chlorpyrifos content 10%); 2.1 ± 1.4^b μg/cm^2/da in data set [7] (Polyurethane, chlorpyrifos content 5%, material exhibited excessive cracking); 10.3 ± 3.5 μg/cm^2/da in data set [7] (Silicone, chlorpyrifos content 5%). For the same compound, the “Release Rate” value came out at 10 μg/cm^2/da in data set [7] (Silicone, chlorpyrifos content 5%, listed as chlorpyrifos) and 1.0 ± 0.3 μg/cm^2/da in data set [7] (Urethane, chlorpyrifos content 10%). In addition, in data set [6] (polymer processing), the “temperature above which excessive thermal decomposition occurred” value is more than 240 °C.

As for `C=C/C=C\CC1=C(C)[C@@H](OC(=O)[C@@H]2[C@@H](C=C(C)C)C2(C)C)CC1=O` [Pyrethrin I], the “Release Rate” value in data set [8] (Epoxy A) stood at 0.5 ± 0.2 μg/cm^2/day; in data set [8] (Epoxy B), 0.2 ± 0.1 μg/cm^2/day; in data set [8] (Silicone) it was 21.2 ± 5.4 μg/cm^2/day; in data set [8] (Urethane), 15.7 ± 7.1 μg/cm^2/day.
